Data as given in a compilation of properties of binary mixtures (doi:10.1007/s10973-016-5820-0).

Assay: xn = mol fraction of the nth substance listed
Conditions: 100 kPa

O=C1CCCCC1 + CCCC[n+]1ccn(C)c1.F[B-](F)(F)F
speed of sound [m/s]
Conditions | 293.15 K | 298.15 K | 303.15 K | 308.15 K
x2 = 0 | 1431.2 | – | 1395.1 | 1375.1
x2 = 0.0736 | 1425.9 | 1409.5 | 1390.7 | –
x2 = 0.1128 | 1424.7 | 1408.5 | – | –
x2 = 0.1597 | 1424.6 | – | 1390.2 | 1371.2
x2 = 0.2045 | – | 1409.9 | 1391.8 | 1373
x2 = 0.2459 | – | 1412.1 | 1394.2 | 1375.6
x2 = 0.2933 | 1431.3 | – | – | 1379.7
x2 = 0.3481 | 1436.6 | 1421.1 | 1403.7 | –
x2 = 0.3956 | 1442.2 | 1426.9 | 1409.8 | 1392
x2 = 0.4429 | 1448.6 | 1433.5 | 1416.7 | 1399.3
x2 = 0.4937 | 1456.5 | 1441.6 | 1425.2 | 1408.1
x2 = 0.5344 | 1463.5 | 1448.7 | 1432.6 | 1415.8
x2 = 0.5938 | 1474.6 | 1460.1 | 1444.5 | 1428.2
x2 = 0.6557 | 1487.3 | 1473.1 | – | 1442.4
x2 = 0.7028 | 1497.8 | 1483.8 | 1469.3 | 1454
x2 = 0.7409 | 1506.7 | 1493 | – | –
x2 = 0.7973 | 1520.6 | 1507.2 | 1493.7 | 1479.5
x2 = 0.8564 | 1536.1 | 1523 | 1510.2 | 1496.7
x2 = 0.9047 | 1549.6 | 1536.7 | 1524.4 | –

CCCC[n+]1ccn(C)c1.F[B-](F)(F)F + O=C1CCCCC1
x1 = 1
Conditions | speed of sound [m/s]
293.15 K | 1578.1
298.15 K | 1565.5
303.15 K | 1554.1
308.15 K | 1542.3
